Laboratory results: US12534762B2, “Treating atopic dermatitis by targeting the WNT pathway” (Children's Medical Center Corporation, priority 2018, dated 2026)

Tested on: Xenopus embryos
Assay: Dorso-animal morpholino injection, phenotype scored at stage 35
Format: in vivo, Xenopus laevis
Details: FIG. 6 Panel D
Description: Xenopus embryo manipulations. Procedures for embryo manipulation, reverse transcription PCR and in situ hybridization were performed as previously described (Zhang et al., 2012, Cell, 149:1565-1577). The full length Xenopus laevis Tmem79 cDNA was used to make in situ sense and antisense probes.
mRNA and Morpholino injection. For animal cap assays, indicated mRNAs (Tmem79, 100 and 200 pg; Xwnt8, 10 pg; β-catenin 50 pg; Xnr1, 250 pg; BMP4, 100 pg) were injected into the animal pole at 4-cell stage, and animal caps were dissected at stage 9 (in the case of Xwnt8, Xnr1, BMP4) or at stage 8.5 and treated with recombinant proteins (bFGF, 100 ng/ml; hShh, 1.5 ng/mL) until stage 10 before RT-PCR. For Neural induction assay the MO (20 ng) for Tmem79, Usp8 or β-catenin was injected into the animal pole at 4-cell stage, and animal caps were dissected at stage 9 and treated with recombinant protein Noggin (500 ng/mL) until stage 18 before RT-PCR. To examine Tmem79 and Usp8 MOs specificity, […] of mRNA of Xenopus Tmem79, mouse Tmem79, Xenopus Usp8 or xmutUsp8 (Xenopus Usp8 mutated for mismatches with the MO) were injected with a control MO, Tmem79 MO or Usp8 MO (20 ng) into the animal pole at the 2-cell stage and cultured til stage 10 for Western blotting. To knockdown the endogenous xTmem79 or xUsp8, 20 ng of control MO, Tmem79 MO or Usp8 MO were injected into two dorso-animal blastomeres at the 8-cell stage and the phenotype was scored at stage 35. To rescue the Tmem79 MO phenotype, […] of mTmem 79, 20 ng of Usp8 MO or 10 ng of β-catenin MO was injected together with Tmem79 MO (20 ng). RT-PCR primers and Morpholinos. RT-PCT primer for Xenopus laevis Tmem 79: Forward, 5′-[…]-3′ (SEQ ID NO: 22); Reverse, 5′-[…]-3′ (SEQ ID NO: 23). The MO sequences: Tmem79.S MO, 5′-[…]-3′ (SEQ ID NO: 24); Tmem79.L MO, 5′-[…]-3′ (SEQ ID NO: 25); Usp8 MO, 5′-[…]-3′ ((SEQ ID NO: 26; Gene Tools, LLC). Phylogeny analysis and protein sequences. TMEM79 protein sequences were derived from full-length NCBI accessions and genomic sequences. Human (Homo sapiens): NP_115699.1 (SEQ ID NO: 27), Chimpanzee (Pan troglodytes): XP_001165258.1 (SEQ ID NO: 28), Rat (Rattus norvegicus): NP_001029068.1 (SEQ ID NO: 29), Mouse (Mus musculus): NP_077208.1 (SEQ ID NO: 30), Chicken (Gallus gallus): XP_024999333.1 (SEQ ID NO: 31), Frog (Xenopus laevis): XP_018089022.1 (SEQ ID NO: 32), Zebra fish (Danio rerio): XP_009290676.1 (SEQ ID NO: 33) and Coelacanth (Latimeria chalumnae): XP_014351966.1 (SEQ ID NO: 34). The Protein sequences encoded by mouse MAPEG family (Membrane-Associated Proteins in Eicosanoid and Glutathione metabolism, pfam01124) members protein sequences were derived from full-length NCBI accessions and genomic sequences. […]

Substance: Usp8 MO: morpholino against Xenopus Usp8, SEQ ID NO: 26 (antisense GCTGCAAATTCTCCTCTCTTATCAA; all phosphorodiamidate morpholino (PMO); listed as Xenopus laevis)
- Enlarged Head: 93.2 % of embryos
- Moderate Deficiency (anterior deficiency): 0.0 % of embryos
- Severe Deficiency (anterior deficiency): 0.0 % of embryos
- Normal (dorso-animal injection): 6.8 % of embryos
